Key:
Assay in all cases: KINOMEscan competition binding
Conditions in all cases: compound 1.0 µM
ACVR1 (human) = ACVR1 (human) (UniProt Q04771)
ACVR2A (human) = ACVR2A (human) (UniProt P27037)
AURKB (human) = AURKB (human) (UniProt Q96GD4)
BMPR1B (human) = BMPR1B (human) (UniProt O00238)
BRSK1 (human) = BRSK1 (human) (UniProt Q8TDC3)
BRSK2 (human) = BRSK2 (human) (UniProt Q8IWQ3)
CAMK2D (human) = CAMK2D (human) (UniProt Q13557)
DCLK1 (human) = DCLK1 (human) (UniProt O15075)
[1] = system: EGFR (human), P00533 [746-750 del]
[2] = system: EGFR (human), P00533 [P753S; 747-752 del]
[3] = system: EIF2AK4 KD2 (human), Q9P2K8 [S808G]
FGFR3 (human) = FGFR3 (human) (UniProt P22607)
FGR (human) = FGR (human) (UniProt P09769)
[4] = system: FLT3 (human), P36888 [K663Q]
GSK3B (human) = GSK3B (human) (UniProt P49841)
HCK (human) = HCK (human) (UniProt P08631)
IRAK1 (human) = IRAK1 (human) (UniProt P51617)
[5] = system: KIT (human), P10721 [L576P]
MAP3K15 (human) = MAP3K15 (human) (UniProt Q6ZN16)
MAP3K3 (human) = MAP3K3 (human) (UniProt Q99759)
MAP4K4 (human) = MAP4K4 (human) (UniProt O95819)
MAPK11 (human) = MAPK11 (human) (UniProt Q15759)
MAPK6 (human) = MAPK6 (human) (UniProt Q16659)
MAPKAPK5 (human) = MAPKAPK5 (human) (UniProt Q8IW41)
NEK2 (human) = NEK2 (human) (UniProt P51955)
PAK2 (human) = PAK2 (human) (UniProt Q13177)
[6] = system: PIK3CA (human), P42336 [E545K]
PIP5K1C (human) = PIP5K1C (human) (UniProt O60331)
PKN2 (human) = PKN2 (human) (UniProt Q16513)
PRKCH (human) = PRKCH (human) (UniProt P24723)
PRKCI (human) = PRKCI (human) (UniProt P41743)
PRKCQ (human) = PRKCQ (human) (UniProt Q04759)
PRKD1 (human) = PRKD1 (human) (UniProt Q15139)
PRKG1 (human) = PRKG1 (human) (UniProt Q13976)
SIK2 (human) = SIK2 (human) (UniProt Q9H0K1)
TAOK1 (human) = TAOK1 (human) (UniProt Q7L7X3)
TNNI3K (human) = TNNI3K (human) (UniProt Q59H18)
TRPM6 (human) = TRPM6 (human) (UniProt Q9BX84)
WNK1 (human) = WNK1 (human) (UniProt Q9H4A3)

ACVR1 (human), sequence (Q04771 whole entry, looked up): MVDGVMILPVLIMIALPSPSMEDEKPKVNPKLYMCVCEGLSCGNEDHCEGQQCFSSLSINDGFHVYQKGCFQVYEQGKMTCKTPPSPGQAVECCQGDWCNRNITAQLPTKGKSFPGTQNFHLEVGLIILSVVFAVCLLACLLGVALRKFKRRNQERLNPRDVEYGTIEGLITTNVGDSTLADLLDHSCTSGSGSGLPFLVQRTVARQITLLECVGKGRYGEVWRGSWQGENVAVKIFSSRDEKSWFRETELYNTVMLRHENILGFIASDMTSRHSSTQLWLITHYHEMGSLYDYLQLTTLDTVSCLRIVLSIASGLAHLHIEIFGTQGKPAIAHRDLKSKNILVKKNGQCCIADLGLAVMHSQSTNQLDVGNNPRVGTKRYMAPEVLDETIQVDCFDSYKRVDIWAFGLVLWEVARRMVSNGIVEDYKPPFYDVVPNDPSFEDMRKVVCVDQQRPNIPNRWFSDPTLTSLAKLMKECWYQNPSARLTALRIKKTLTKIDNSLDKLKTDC
PIP5K1C (human), sequence (O60331 whole entry, looked up): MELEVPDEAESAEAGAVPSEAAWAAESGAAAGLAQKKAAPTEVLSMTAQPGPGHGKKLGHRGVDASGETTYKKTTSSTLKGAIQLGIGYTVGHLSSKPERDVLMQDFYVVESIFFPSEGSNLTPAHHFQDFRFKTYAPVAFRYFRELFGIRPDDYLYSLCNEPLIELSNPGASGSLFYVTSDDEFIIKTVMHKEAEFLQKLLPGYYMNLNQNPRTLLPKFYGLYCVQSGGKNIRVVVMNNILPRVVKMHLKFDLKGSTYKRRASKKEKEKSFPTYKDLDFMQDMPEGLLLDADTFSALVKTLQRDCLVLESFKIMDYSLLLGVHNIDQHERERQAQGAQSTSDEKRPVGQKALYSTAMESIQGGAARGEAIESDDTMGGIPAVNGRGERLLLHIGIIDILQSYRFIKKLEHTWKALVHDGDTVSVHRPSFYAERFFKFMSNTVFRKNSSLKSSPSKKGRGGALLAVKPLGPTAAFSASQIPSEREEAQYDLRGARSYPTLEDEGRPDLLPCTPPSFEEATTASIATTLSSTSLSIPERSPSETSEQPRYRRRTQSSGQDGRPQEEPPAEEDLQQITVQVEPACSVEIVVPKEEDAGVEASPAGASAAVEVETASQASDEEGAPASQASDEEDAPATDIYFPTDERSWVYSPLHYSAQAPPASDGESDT
BRSK2 (human), sequence (Q8IWQ3 whole entry, looked up): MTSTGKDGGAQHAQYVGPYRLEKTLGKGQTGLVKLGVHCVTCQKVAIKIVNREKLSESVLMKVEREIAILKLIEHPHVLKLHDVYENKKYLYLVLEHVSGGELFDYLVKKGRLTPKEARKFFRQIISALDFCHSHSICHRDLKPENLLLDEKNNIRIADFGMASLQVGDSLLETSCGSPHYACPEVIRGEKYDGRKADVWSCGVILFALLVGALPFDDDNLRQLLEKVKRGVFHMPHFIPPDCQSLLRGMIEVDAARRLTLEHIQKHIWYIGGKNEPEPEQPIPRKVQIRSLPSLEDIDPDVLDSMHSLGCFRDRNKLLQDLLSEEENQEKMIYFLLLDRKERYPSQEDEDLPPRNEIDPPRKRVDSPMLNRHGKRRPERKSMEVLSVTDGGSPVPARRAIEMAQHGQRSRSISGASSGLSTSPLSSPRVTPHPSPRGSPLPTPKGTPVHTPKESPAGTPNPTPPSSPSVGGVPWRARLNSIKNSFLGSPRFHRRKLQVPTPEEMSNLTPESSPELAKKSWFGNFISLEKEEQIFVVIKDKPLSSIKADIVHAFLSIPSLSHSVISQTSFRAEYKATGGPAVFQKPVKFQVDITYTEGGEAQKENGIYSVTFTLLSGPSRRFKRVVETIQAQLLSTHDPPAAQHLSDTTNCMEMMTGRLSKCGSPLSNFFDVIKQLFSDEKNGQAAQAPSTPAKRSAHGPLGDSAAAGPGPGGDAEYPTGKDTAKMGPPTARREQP
DCLK1 (human), sequence (O15075 whole entry, looked up): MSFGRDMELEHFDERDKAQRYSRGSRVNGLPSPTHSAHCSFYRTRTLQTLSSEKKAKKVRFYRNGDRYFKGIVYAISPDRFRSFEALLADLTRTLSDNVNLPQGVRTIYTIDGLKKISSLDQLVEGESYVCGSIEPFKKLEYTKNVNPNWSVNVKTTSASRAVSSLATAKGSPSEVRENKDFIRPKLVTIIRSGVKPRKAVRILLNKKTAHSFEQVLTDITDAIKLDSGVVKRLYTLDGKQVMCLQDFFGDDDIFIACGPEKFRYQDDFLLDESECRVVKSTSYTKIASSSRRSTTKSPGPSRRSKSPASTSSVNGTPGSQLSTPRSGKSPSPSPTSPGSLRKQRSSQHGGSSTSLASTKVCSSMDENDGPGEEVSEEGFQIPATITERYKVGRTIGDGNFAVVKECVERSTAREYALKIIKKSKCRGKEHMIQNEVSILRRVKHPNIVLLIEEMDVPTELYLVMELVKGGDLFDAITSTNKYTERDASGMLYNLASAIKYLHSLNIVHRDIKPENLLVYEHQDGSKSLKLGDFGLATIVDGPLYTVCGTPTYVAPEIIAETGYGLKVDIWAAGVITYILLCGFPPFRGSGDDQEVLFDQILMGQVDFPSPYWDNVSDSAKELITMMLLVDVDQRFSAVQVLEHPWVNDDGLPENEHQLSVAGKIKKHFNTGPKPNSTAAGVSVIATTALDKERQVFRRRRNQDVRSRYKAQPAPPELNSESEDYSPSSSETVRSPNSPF
MAP3K3 (human), sequence (Q99759 whole entry, looked up): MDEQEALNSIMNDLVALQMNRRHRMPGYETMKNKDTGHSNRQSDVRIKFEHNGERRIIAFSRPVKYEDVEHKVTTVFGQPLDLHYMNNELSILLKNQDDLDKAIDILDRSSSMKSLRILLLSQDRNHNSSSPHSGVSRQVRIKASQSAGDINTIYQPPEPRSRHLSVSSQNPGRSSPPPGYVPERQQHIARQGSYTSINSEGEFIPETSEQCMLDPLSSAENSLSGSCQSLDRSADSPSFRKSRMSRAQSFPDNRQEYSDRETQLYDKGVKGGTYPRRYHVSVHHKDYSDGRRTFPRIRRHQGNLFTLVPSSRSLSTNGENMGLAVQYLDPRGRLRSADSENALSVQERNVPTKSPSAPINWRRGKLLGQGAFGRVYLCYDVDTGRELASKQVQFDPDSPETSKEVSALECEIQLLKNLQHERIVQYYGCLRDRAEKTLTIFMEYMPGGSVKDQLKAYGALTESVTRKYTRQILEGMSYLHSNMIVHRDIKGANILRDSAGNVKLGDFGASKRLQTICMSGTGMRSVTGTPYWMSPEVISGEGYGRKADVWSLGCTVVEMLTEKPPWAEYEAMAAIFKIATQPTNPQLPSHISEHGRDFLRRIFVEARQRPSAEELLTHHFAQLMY
BMPR1B (human), sequence (O00238 whole entry, looked up): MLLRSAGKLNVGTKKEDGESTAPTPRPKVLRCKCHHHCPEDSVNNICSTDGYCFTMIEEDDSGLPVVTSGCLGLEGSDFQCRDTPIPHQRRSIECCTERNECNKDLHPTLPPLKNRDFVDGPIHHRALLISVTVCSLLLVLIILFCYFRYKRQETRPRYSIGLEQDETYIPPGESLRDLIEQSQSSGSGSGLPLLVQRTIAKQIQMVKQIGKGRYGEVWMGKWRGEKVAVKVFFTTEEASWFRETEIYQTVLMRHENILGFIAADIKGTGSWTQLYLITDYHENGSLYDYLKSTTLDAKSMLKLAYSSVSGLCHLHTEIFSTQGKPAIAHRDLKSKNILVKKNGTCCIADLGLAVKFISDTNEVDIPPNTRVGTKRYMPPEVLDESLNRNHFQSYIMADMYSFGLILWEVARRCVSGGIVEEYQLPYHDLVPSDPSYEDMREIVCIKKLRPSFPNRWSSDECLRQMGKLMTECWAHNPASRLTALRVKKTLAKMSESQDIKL
MAPK6 (human), sequence (Q16659 whole entry, looked up): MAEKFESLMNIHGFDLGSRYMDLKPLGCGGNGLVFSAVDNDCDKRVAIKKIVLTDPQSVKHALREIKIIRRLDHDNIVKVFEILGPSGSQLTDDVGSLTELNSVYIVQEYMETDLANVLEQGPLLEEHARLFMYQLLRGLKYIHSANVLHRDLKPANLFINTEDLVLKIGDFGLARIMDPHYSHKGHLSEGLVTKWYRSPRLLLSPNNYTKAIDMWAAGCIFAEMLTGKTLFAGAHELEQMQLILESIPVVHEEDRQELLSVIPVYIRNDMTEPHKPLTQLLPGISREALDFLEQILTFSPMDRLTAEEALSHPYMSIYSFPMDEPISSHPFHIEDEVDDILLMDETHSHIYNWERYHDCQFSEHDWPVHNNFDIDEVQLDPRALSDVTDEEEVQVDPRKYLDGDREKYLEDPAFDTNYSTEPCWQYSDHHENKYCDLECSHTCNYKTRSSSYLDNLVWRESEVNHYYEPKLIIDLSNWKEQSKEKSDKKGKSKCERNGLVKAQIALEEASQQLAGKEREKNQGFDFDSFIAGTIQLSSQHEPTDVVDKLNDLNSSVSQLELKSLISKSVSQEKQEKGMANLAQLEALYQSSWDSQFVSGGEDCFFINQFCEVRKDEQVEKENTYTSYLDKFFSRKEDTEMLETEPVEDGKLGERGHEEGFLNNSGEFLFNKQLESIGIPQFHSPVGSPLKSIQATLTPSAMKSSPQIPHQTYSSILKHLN
FGR (human), sequence (P09769 whole entry, looked up): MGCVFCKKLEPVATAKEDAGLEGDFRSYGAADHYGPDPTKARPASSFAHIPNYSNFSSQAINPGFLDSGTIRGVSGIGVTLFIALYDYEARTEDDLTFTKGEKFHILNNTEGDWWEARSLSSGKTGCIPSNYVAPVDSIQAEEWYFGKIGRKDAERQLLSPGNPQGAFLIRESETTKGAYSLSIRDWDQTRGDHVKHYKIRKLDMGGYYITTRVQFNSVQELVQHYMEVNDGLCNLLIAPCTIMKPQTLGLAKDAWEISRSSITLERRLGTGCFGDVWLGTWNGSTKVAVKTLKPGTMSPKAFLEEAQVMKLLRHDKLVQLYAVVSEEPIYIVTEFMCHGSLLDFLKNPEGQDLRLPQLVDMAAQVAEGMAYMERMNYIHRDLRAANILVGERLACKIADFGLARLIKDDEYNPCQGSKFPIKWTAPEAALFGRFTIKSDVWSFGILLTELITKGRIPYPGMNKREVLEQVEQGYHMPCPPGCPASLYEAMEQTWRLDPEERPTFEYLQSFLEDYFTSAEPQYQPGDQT

Compound `CNc1nc(Nc2ccc(C(=O)N3CCOCC3)cc2OC)ncc1Cl` has a kinase still bound, per cent of control (ACVR1 (human)) of 95%, a kinase still bound, per cent of control (ACVR2A (human)) of 75% and a kinase still bound, per cent of control (AURKB (human)) of 100%. It also gave a kinase still bound, per cent of control (BMPR1B (human)) of 100%, a kinase still bound, per cent of control (BRSK1 (human)) of 96% and a kinase still bound, per cent of control (BRSK2 (human)) of 51%. The kinase still bound, per cent of control (CAMK2D (human)) was 87%, the kinase still bound, per cent of control (DCLK1 (human)) was 100% and the kinase still bound, per cent of control [1] was 88%. It also gave a kinase still bound, per cent of control [2] of 89%, a kinase still bound, per cent of control [3] of 85% and a kinase still bound, per cent of control (FGFR3 (human)) of 100%. For the same compound, the kinase still bound, per cent of control (FGR (human)) was 100%, the kinase still bound, per cent of control [4] was 53% and the kinase still bound, per cent of control (GSK3B (human)) was 97%. The kinase still bound, per cent of control (HCK (human)) was 100%, the kinase still bound, per cent of control (IRAK1 (human)) was 100% and the kinase still bound, per cent of control [5] was 9.4%. For the same compound, the kinase still bound, per cent of control (MAP3K15 (human)) was 97%, the kinase still bound, per cent of control (MAP3K3 (human)) was 56% and the kinase still bound, per cent of control (MAP4K4 (human)) was 77%. The kinase still bound, per cent of control (MAPK11 (human)) was 100%, the kinase still bound, per cent of control (MAPK6 (human)) was 100% and the kinase still bound, per cent of control (MAPKAPK5 (human)) was 100%. For the same compound, the kinase still bound, per cent of control (NEK2 (human)) was 78%, the kinase still bound, per cent of control (PAK2 (human)) was 95% and the kinase still bound, per cent of control [6] was 100%. For the same compound, the kinase still bound, per cent of control (PIP5K1C (human)) was 99%, the kinase still bound, per cent of control (PKN2 (human)) was 79% and the kinase still bound, per cent of control (PRKCH (human)) was 100%. For the same compound, the kinase still bound, per cent of control (PRKCI (human)) was 100%, the kinase still bound, per cent of control (PRKCQ (human)) was 100% and the kinase still bound, per cent of control (PRKD1 (human)) was 83%. The kinase still bound, per cent of control (PRKG1 (human)) was 82%, the kinase still bound, per cent of control (SIK2 (human)) was 100% and the kinase still bound, per cent of control (TAOK1 (human)) was 99%. For the same compound, the kinase still bound, per cent of control (TNNI3K (human)) was 54%, the kinase still bound, per cent of control (TRPM6 (human)) was 87% and the kinase still bound, per cent of control (WNK1 (human)) was 100%.

From the kinase profiling compilation of Christmann-Franck et al. (2016)
